# Source: patent US20180045715A1, “STRUCTURE AND FUNCTION OF THE SALICYCLIC ACID BINDING SITES ON HUMAN HMGB1 AND METHODS OF USE THEREOF FOR THE RATIONAL DESIGN OF BOTH SALICYCLIC ACID DERIVATIVES AND OTHER AGENTS THAT ALTER ANIMAL AND PLANT HMGBS ACTIVITIES” (Boyce Thompson Institute for Plant Research, Inc., priority 2015, published 2018)
# Read-outs that look alike come from different tables or passages of the source.
# Legend:
# [1] = after intake of 500 mg of aspirin; cited from earlier work
# full-length HMGB1 [2] = molecular target: T1, full-length HMGB1 (Homo sapiens, UniProt P09429); test: Saturation transfer difference (STD) NMR; type: binding
# T1 construct: (i) full length: residues 2-215; hexaHis (TEV-cleavable) (N, cleaved yes); made in house
# T1 sequence (P09429 2-215): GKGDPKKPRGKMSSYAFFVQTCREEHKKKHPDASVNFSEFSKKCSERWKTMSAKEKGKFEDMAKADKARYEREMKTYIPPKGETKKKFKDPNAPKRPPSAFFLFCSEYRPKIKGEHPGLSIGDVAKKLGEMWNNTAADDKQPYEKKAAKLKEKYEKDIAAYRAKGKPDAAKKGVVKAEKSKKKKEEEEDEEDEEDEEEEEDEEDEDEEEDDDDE
# Text: (§1) NMR can be used to detect protein ligand interactions either by protein-detected experiments (Lepre, Moore et al. 2004), detecting changes in the frequencies of resonances of the protein sample due to ligand binding (protein-detected chemical shift perturbation (CSP) experiments), or by ligand-detected experiments (Lepre, Moore et al. 2004), in which NMR properties of the ligands due to ligand-protein interactions are detected. Protein-detected ligand binding experiments are usually done using isotope-enriched protein samples which can be studied by isotope-filtered NMR experiments, including for example ^15N-^1H-HSQC (Kay, Keifer et al. 1992). Ligand-detected experiments include the Waterlogsy experiment (Meyer and Peters 2003, Lepre, Moore et al. 2004, Furihata, Shimotakahara et al. 2008), which detects interactions in the ternary complex formed by the protein, the ligand, and one or more water molecules, and the Saturation Transfer Difference (STD) NMR experiments (Mayer and Meyer 2001, Lepre, Moore et al. 2004, Wang, Liu et al. 2004), which detects magnetization transfer from the protein to the ligand in the protein-ligand complex. The Waterlogsy experiment is a more sensitive experiment, typically employed to detect qualitatively if there is an interaction between protein and ligand. […]
# HMGB1 [3] = molecular target: T2, HMGB1 (Homo sapiens, UniProt P09429); test: Cell migration assay with mouse embryonic fibroblasts, WT or Ptgs2-/-; type: cell-based; conditions: dose-dependent, both WT and Ptgs2−/− MEFs
# T2 construct: (i) full length: residues 2-215; 6x His (cleaved yes); made in house; host or cells: Escherichia coli BL21
# T2 sequence (P09429 2-215): T1 sequence (P09429 2-215)
# Procedure: Human HeLa cells were grown in T75 flasks in DMEM medium supplemented with penicillin (10,000 IU/mL) streptomycin ([…]), and 10% fetal calf serum. Ptgs2−/− MEFs were derived from Ptgs2−/− E16 mouse embryos, obtained from the mating of Ptgs2+/− mice purchased from Taconic Biosciences. PBMCs were isolated from buffy coats of donor blood (Hospital of Magenta, Milan, Italy) by Ficoll gradient centrifugation (Lymphoprep; AXIS-SHIELD. CD14+ monocytes were isolated by positive immunoselection (CD14 Microbeads; Miltenyi Biotec) according to the manufacturer's instructions, and differentiated into macrophages using X-Vivo medium supplemented with 1% heat inactivated human serum, GM-CSF, and M-CSF.
# Cell migration was assayed using Boyden chambers (Venereau et al., 2012). The downside of PVP-free polycarbonate filters (8 μm pores; Millipore) was coated with 50 μg/ml fibronectin (Sigma). Serum-free DMEM (negative control), DMEM containing 0.1 nM fMLP (positive control; Sigma), or DMEM containing 1 nM HMGB1^RE or HMGB1^SS were placed in the lower chamber, together with different concentrations of SA (Sigma). The mouse 3T3 fibroblast cells were cultured in DMEM media supplemented with 10% CS until 90% confluence, washed twice with PBS to eliminate any floating cells, and harvested with trypsin. […]
# HMGB1 [4] = molecular target: T2, HMGB1; test: Photoaffinity labeling of HMGB1 with 4AzSA, competition by SA; type: binding; conditions: 0.1 mM 4AzSA, increasing concentrations of SA
# Procedure: HMGB1's SA-binding activity was then assessed using photoaffinity-crosslinking. Recombinant HMGB1 was pre-incubated with or without photoreactive 4-azido SA (4AzSA) before exposure to UV irradiation (FIG. 1B).
# full-length HMGB1 [5] = molecular target: T1, full-length HMGB1; test: WaterLOGSY NMR with HMGB1; type: binding; conditions: 6 mM SA or 5 mM ac3AESA, 20 μM protein
# Text: as §1
# HMGB1^RE [6] = molecular target: T3, HMGB1^RE (Homo sapiens, UniProt P09429); test: Chemotaxis assay (Boyden chambers): HMGB1^RE-elicited migration of mouse 3T3 fibroblasts; type: cell-based
# T3 construct: (i) full length: residues 2-215; 6x His (cleaved yes); made in house; host or cells: Escherichia coli BL21
# T3 sequence (P09429 2-215): T1 sequence (P09429 2-215)
# Procedure: (§2) Cell migration was assayed using Boyden chambers (Venereau et al., 2012). The downside of PVP-free polycarbonate filters (8 μm pores; Millipore) was coated with 50 μg/ml fibronectin (Sigma). Serum-free DMEM (negative control), DMEM containing 0.1 nM fMLP (positive control; Sigma), or DMEM containing 1 nM HMGB1^RE or HMGB1^SS were placed in the lower chamber, together with different concentrations of SA (Sigma). The mouse 3T3 fibroblast cells were cultured in DMEM media supplemented with 10% CS until 90% confluence, washed twice with PBS to eliminate any floating cells, and harvested with trypsin. 50,000 cells in 200 μL were added to the upper chamber, and cells were left to migrate for 3 h at 37° C. Non-migrating cells were removed with a cotton swab, and migrated cells were fixed with ethanol and stained with Giemsa.
# (§3) HMGB1^RE acts as a chemo-attractant that mediates migration of several cell types, including monocytes, fibroblasts, mesoangioblasts, smooth muscle cells, and colon cancer cells (Venereau et al., 2012). To determine whether SA alters HMGB 1's chemo-attractant activity, a chemotaxis assay was performed with mouse 3T3 fibroblasts.
# HMGB1^RE [7] = test: as above; type: cell-based; conditions: chemo-attractant and cytokine-inducing activities vs literature COX-2 inhibition
# Procedure: as §2, §3
smiles,measurement,setting,value
"O=C(O)c1ccccc1O [SA, salicylic acid]",time to reach the stated SA plasma concentration,[1],≤ 1 h
same,STD signal for binding to full-length HMGB1,"full-length HMGB1 [2]; 20 μM HMGB1, pH 7.4, SA 6 mM, ac3AESA 0.6-5.8 mM",no STD signal is detected
same,ligand concentration at which an STD effect for HMGB1 binding is seen,"full-length HMGB1 [2]; 20 μM HMGB1, SA tested as high as 6 mM",no STD effect
same,inhibition of fibroblast migration in WT and Ptgs2-/- MEFs,HMGB1 [3],effectively inhibited
same,inhibition of crosslinking of 4AzSA to HMGB1,HMGB1 [4],effectively inhibited crosslinking
same,WaterLOGSY binding to HMGB1,full-length HMGB1 [5],binds
same,IC50,"HMGB1^RE [6]; mouse 3T3 fibroblasts, 1 nM HMGB1^RE, read-out: IC50, inhibition of HMGB1^RE-elicited migration of fibroblasts",3 to 4 µM
same,IC50,"HMGB1^RE [6]; read-out: IC50, inhibition of HMGB1^RE-induced chemotaxis",3.26 to 4.34 µM
same,"concentration inhibiting HMGB1 bioactivities, fold below that required to inhibit COX-2's enzyme activity",HMGB1^RE [7],10-50 fold
